According to patent US7056890B2, “Combination therapy for effecting weight loss and treating obesity” (VIVUS, Inc., priority 1999, dated 2006):

What was measured:
[1] = Case history of patient(B), topiramate added to phentermine; type: in vivo, human; details: on phentermine after Redux withdrawal
Method: They once weighed as much as 395 pounds. When Redux was still on the mark in the United States, they were treated with a combination of diet, exercise, Redux and phentermine. Their lowest weight attained was 285 pounds. When Redux was withdrawn from the market, they remained on phentermine but gained weight back to 295–300 pounds. When topiramate was added to their regimen, they managed to lose 25 pounds and is currently at 271 pounds, their lowest weight since they were […].

[2] = literature studies; cited from earlier work
[3] = Trial of phentermine in combination with topiramate to effect weight loss in patients; type: in vivo, human; details: follow-up 2-9 weeks
Method: Patients as part of the following trial were treated according to the following dosage regimen. Patients took phentermine at a dose of 15 mg daily throughout the weight loss program, before breakfast. For the first 6 days, patients took one 25 mg tablet of topiramate before supper. For the next 6 days, patients took two 25 mg tablets of topiramate before supper. For the next 7 days (days 13–19), patients took 100 mg before supper daily using 4–25 mg tablets of topiramate daily. For days 20–26, patients took 150 mg of topiramate daily consisting of one-half of a 200 mg tablet and two 25-mg mg tablets of topiramate. From that point on, unless instructed otherwise by the physician, patients continued to take one 200 mg topiramate tablet daily before supper and continued the 15 mg phentermine daily in the morning. Patients were advised to drink at least eight (8) full glasses of water daily to reduce the risk of kidney stones which may result from taking topiramate.
Patients were advised that while the effect of phentermine is fairly rapid, the effect of topiramate is slower in onset. The weight reduction effect of topiramate will continue for as long as 18 months on the medication. That is, the patient can expect to continue gradual weight loss for up to 18 months on the medication. Of course, weight loss is maximal if the patient follows diet and/or exercise programs. The weight loss should exceed 15% of the patients starting weight. Thus, if the patient weighs about 200 pounds as of the start date, he/she might expect to lose at least 30 pounds in a period of 12–18 months. The following patient data has been collected.
A total of thirteen patients were treated for 1–9 months with phentermine (15 mg daily) in the morning and up to 400 mg of topiramate (median dose 200 mg), in the evening. […] Along with taking medication, patients were instructed to walk at least 30 minutes three times per week and to follow a low fat diet. No patients had taken diet medication for at least 3 months prior to treatment. Average baseline BMI was 32.5 (range 26–48).

| Structure (SMILES) | weight loss, drug compared with placebo [2] | further results |
| --- | --- | --- |
| CC(C)(N)Cc1ccccc1 [phentermine] | about 5 % of body weight | weight regained [1]: 295–300 pounds |
| CCN[C@@H](C)Cc1cccc(C(F)(F)F)c1 [dexfenfluramine] | about 5 % of body weight |  |
| CCCCCCCCCCC[C@@H](C[C@@H]1OC(=O)[C@H]1CCCCCC)OC(=O)[C@H](CC(C)C)NC=O [orlistat] | about 5 % of body weight |  |
| CC(C)CC(N(C)C)C1(c2ccc(Cl)cc2)CCC1.Cl (centres unmarked) [Meridia] |  | Follow-Up Weight (lbs) ([3]; individual patients (one per line), phentermine 15 mg daily, topiramate titrated 25 to 200 mg daily): 177 lbs; Follow-Up Blood Pressure ([3]; individual patients): 120/80; % Weight Loss ([3]; individual patients, versus start weight): 2.7% |
| CC(C)CC(N(C)C)C1(c2ccc(Cl)cc2)CCC1 (centres unmarked) [sibutramine] | about 5 % of body weight |  |
